Measured values: patent US11752120B2, “Use of succinic acid in increasing sensitivity of bacteria to antibiotics” (SUN YAT-SEN UNIVERSITY, priority 2018, dated 2023)

What was measured:
E. coli K12 = assay: Minimum inhibitory concentration (MIC), NCCLS method, control strain; type: cell-based, Escherichia coli; details: no unit in table, MIC in μg/mL
Excerpt: (§1) Escherichia coli (E. coli) are one of the most common bacteria in the clinic. 30 strains of E. coli obtained from the clinic were named YT1-30. The minimum inhibitory concentrations (MIC) of 8 antibiotics against these 30 clinically obtained E. coli was detected according to the NCCLS method, and E. coli K12 was used as a control.

[1] = test system: clinical Escherichia coli YT1-30; assay: Minimum inhibitory concentration (MIC), NCCLS method, 30 clinical strains; type: cell-based; parameters: Minimum inhibitory concentration (MIC): unit not given here
Excerpt: as §1

SMILES | Minimum inhibitory concentration (MIC) (E. coli K12) | Minimum inhibitory concentration (MIC) ([1]; strain YT1) | Minimum inhibitory concentration (MIC) ([1]; strain YT2) | Minimum inhibitory concentration (MIC) ([1]; strain YT3) | Minimum inhibitory concentration (MIC) ([1]; strain YT4) | Minimum inhibitory concentration (MIC) ([1]; strain YT5) | Minimum inhibitory concentration (MIC) ([1]; strain YT6) | Minimum inhibitory concentration (MIC) ([1]; strain YT7) | Minimum inhibitory concentration (MIC) ([1]; strain YT8) | Minimum inhibitory concentration (MIC) ([1]; strain YT9) | Minimum inhibitory concentration (MIC) ([1]; strain YT10) | Minimum inhibitory concentration (MIC) ([1]; strain YT11) | Minimum inhibitory concentration (MIC) ([1]; strain YT12) | Minimum inhibitory concentration (MIC) ([1]; strain YT13) | Minimum inhibitory concentration (MIC) ([1]; strain YT14) | Minimum inhibitory concentration (MIC) ([1]; strain YT15) | Minimum inhibitory concentration (MIC) ([1]; strain YT16) | Minimum inhibitory concentration (MIC) ([1]; strain YT17) | Minimum inhibitory concentration (MIC) ([1]; strain YT18) | Minimum inhibitory concentration (MIC) ([1]; strain YT19) | other results
NCC[C@H](O)C(=O)N[C@@H]1C[C@H](N)[C@@H](O[C@H]2O[C@H](CN)[C@@H](O)[C@H](O)[C@H]2O)[C@H](O)[C@H]1O[C@H]1O[C@H](CO)[C@@H](O)[C@H](N)[C@H]1O [Amikacin] | 0.61 | 9.765 | 9.765 | 9.765 | 9.765 | 9.765 | 9.765 | 9.765 | 9.765 | 2.441 | 39.0625 | 2500 | 2500 | 2500 | 2500 | 2500 | 2500 | 2500 | 2.441 | 9.76 | Minimum inhibitory concentration (MIC) ([1]; strain YT20): 2.441; Minimum inhibitory concentration (MIC) ([1]; strain YT21): 2500; Minimum inhibitory concentration (MIC) ([1]; strain YT22): 625; Minimum inhibitory concentration (MIC) ([1]; strain YT23): 9.765; Minimum inhibitory concentration (MIC) ([1]; strain YT24): 9.765; Minimum inhibitory concentration (MIC) ([1]; strain YT25): 2500; Minimum inhibitory concentration (MIC) ([1]; strain YT26): 2500; Minimum inhibitory concentration (MIC) ([1]; strain YT27): 9.765; Minimum inhibitory concentration (MIC) ([1]; strain YT28): 2500; Minimum inhibitory concentration (MIC) ([1]; strain YT29): 9.765; Minimum inhibitory concentration (MIC) ([1]; strain YT30): 2.441
CC[C@H]1OC(=O)[C@H](C)[C@@H](O[C@H]2C[C@@](C)(OC)[C@@H](O)[C@H](C)O2)[C@H](C)[C@@H](O[C@@H]2O[C@H](C)C[C@H](N(C)C)[C@H]2O)[C@](C)(O)C[C@@H](C)/C(=N\OCOCCOC)[C@H](C)[C@@H](O)[C@]1(C)O [Roxithromycin] | 9.765 | 39.0625 | 625 | 625 | 156.25 | 625 | 625 | 625 | 625 | 625 | 625 | 625 | 625 | 625 | 2500 | 2500 | 625 | 625 | 625 | 625 | Minimum inhibitory concentration (MIC) ([1]; strain YT20): 625; Minimum inhibitory concentration (MIC) ([1]; strain YT21): 625; Minimum inhibitory concentration (MIC) ([1]; strain YT22): 625; Minimum inhibitory concentration (MIC) ([1]; strain YT23): 625; Minimum inhibitory concentration (MIC) ([1]; strain YT24): 625; Minimum inhibitory concentration (MIC) ([1]; strain YT25): 625; Minimum inhibitory concentration (MIC) ([1]; strain YT26): 625; Minimum inhibitory concentration (MIC) ([1]; strain YT27): 625; Minimum inhibitory concentration (MIC) ([1]; strain YT28): 2500; Minimum inhibitory concentration (MIC) ([1]; strain YT29): 625; Minimum inhibitory concentration (MIC) ([1]; strain YT30): 156.25
CNC1CCCN(c2c(F)cc3c(=O)c(C(=O)O)cn(C4CC4)c3c2OC)C1 (stereo not shown) [Balofloxacin] | 0.015 | 0.244 | 3.906 | 15.625 | 250 | 250 | 62.5 | 15.625 | 250 | 250 | 15.625 | 3.906 | 62.5 | 62.5 | 15.625 | 15.625 | 250 | 250 | 62.5 | 62.5 | Minimum inhibitory concentration (MIC) ([1]; strain YT20): 62.5; Minimum inhibitory concentration (MIC) ([1]; strain YT21): 15.625; Minimum inhibitory concentration (MIC) ([1]; strain YT22): 62.5; Minimum inhibitory concentration (MIC) ([1]; strain YT23): 15.625; Minimum inhibitory concentration (MIC) ([1]; strain YT24): 15.625; Minimum inhibitory concentration (MIC) ([1]; strain YT25): 0.244; Minimum inhibitory concentration (MIC) ([1]; strain YT26): 15.625; Minimum inhibitory concentration (MIC) ([1]; strain YT27): 15.625; Minimum inhibitory concentration (MIC) ([1]; strain YT28): 15.625; Minimum inhibitory concentration (MIC) ([1]; strain YT29): 15.625; Minimum inhibitory concentration (MIC) ([1]; strain YT30): 15.625
CN(C)[C@@H]1C(O)=C(C(N)=O)C(=O)[C@@]2(O)C(O)=C3C(=O)c4c(O)cccc4[C@@](C)(O)[C@H]3C[C@@H]12 [Tetracycline] | 1.526 | 6.1 | 24.414 | 97.656 | 390.625 | 390.625 | 97.656 | 97.656 | 97.656 | 97.656 | 97.656 | 97.656 | 6250 | 6250 | 6250 | 6250 | 6250 | 6250 | 1562.5 | 1562.5 | Minimum inhibitory concentration (MIC) ([1]; strain YT20): 1562.5; Minimum inhibitory concentration (MIC) ([1]; strain YT21): 1562.5; Minimum inhibitory concentration (MIC) ([1]; strain YT22): 1562.5; Minimum inhibitory concentration (MIC) ([1]; strain YT23): 1562.5; Minimum inhibitory concentration (MIC) ([1]; strain YT24): 1562.5; Minimum inhibitory concentration (MIC) ([1]; strain YT25): 6.103; Minimum inhibitory concentration (MIC) ([1]; strain YT26): 97.656; Minimum inhibitory concentration (MIC) ([1]; strain YT27): 97.656; Minimum inhibitory concentration (MIC) ([1]; strain YT28): 390.625; Minimum inhibitory concentration (MIC) ([1]; strain YT29): 390.625; Minimum inhibitory concentration (MIC) ([1]; strain YT30): 390.625
